Laboratory results taken from paper PMC11576293, “New series of 4,6-diaryl pyrimidines: facile synthesis and antiproliferative activity as dual EGFR/VEGFR-2 inhibitors” (Frontiers in Chemistry, 2024).

What was measured:
UACC-257 = experiment: NCI-60 single-dose screen; type: cell-based; conditions: Homo sapiens, single dose 10 µM, '-' = no inhibition, read-out: % Growth Inhibition
Procedure, shortened: (§1)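 Single concentration of 10 μM applied to every line of the 60-cell-line NCI panel. Testing performed by NCI DTP.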

NCI-H23 = experiment: NCI-60 single-dose screen; type: cell-based; conditions: Homo sapiens, single dose 10 µM, '-' = no inhibition, read-out: % Growth Inhibition
Procedure, shortened: as §1

MCF7 = experiment: NCI-60 single-dose screen; type: cell-based; conditions: Homo sapiens, single dose 10 µM, '-' = no inhibition, read-out: % Growth Inhibition
Procedure, shortened: as §1

M14 = experiment: NCI-60 single-dose screen; type: cell-based; conditions: Homo sapiens, single dose 10 µM, '-' = no inhibition, read-out: % Growth Inhibition
Procedure, shortened: as §1

ACHN 1 = experiment: NCI-60 single-dose screen; type: cell-based; conditions: Homo sapiens, single dose 10 µM, '-' = no inhibition, read-out: % Growth Inhibition
Procedure, shortened: as §1

UO-31 = experiment: NCI-60 single-dose screen; type: cell-based; conditions: Homo sapiens, single dose 10 µM, '-' = no inhibition, read-out: % Growth Inhibition
Procedure, shortened: as §1

MOLT-4 = experiment: NCI-60 single-dose screen; type: cell-based; conditions: Homo sapiens, single dose 10 µM, '-' = no inhibition, read-out: % Growth Inhibition
Procedure, shortened: as §1

SK-MEL-2 = experiment: NCI-60 single-dose screen; type: cell-based; conditions: Homo sapiens, single dose 10 µM, '-' = no inhibition, read-out: % Growth Inhibition
Procedure, shortened: as §1

PC-3 = experiment: NCI-60 single-dose screen; type: cell-based; conditions: Homo sapiens, single dose 10 µM, '-' = no inhibition, read-out: % Growth Inhibition
Procedure, shortened: as §1

OVCAR-8 = experiment: NCI-60 single-dose screen; type: cell-based; conditions: Homo sapiens, single dose 10 µM, '-' = no inhibition, read-out: % Growth Inhibition
Procedure, shortened: as §1

K-562 = experiment: NCI-60 single-dose screen; type: cell-based; conditions: Homo sapiens, K562, single dose 10 µM, '-' = no inhibition, read-out: % Growth Inhibition
Procedure, shortened: as §1

BT-549 = experiment: NCI-60 single-dose screen; type: cell-based; conditions: Homo sapiens, single dose 10 µM, '-' = no inhibition, read-out: % Growth Inhibition
Procedure, shortened: as §1

MDA-MB-468 = experiment: NCI-60 single-dose screen; type: cell-based; conditions: Homo sapiens, single dose 10 µM, '-' = no inhibition, read-out: % Growth Inhibition
Procedure, shortened: as §1

TK-10 = experiment: NCI-60 single-dose screen; type: cell-based; conditions: Homo sapiens, single dose 10 µM, '-' = no inhibition, read-out: % Growth Inhibition
Procedure, shortened: as §1

IGROV1 = experiment: NCI-60 single-dose screen; type: cell-based; conditions: Homo sapiens, IGROV-1, single dose 10 µM, '-' = no inhibition, read-out: % Growth Inhibition
Procedure, shortened: as §1

EKVX = experiment: NCI-60 single-dose screen; type: cell-based; conditions: Homo sapiens, single dose 10 µM, '-' = no inhibition, read-out: % Growth Inhibition
Procedure, shortened: as §1

HCC-2998 = experiment: NCI-60 single-dose screen; type: cell-based; conditions: Homo sapiens, single dose 10 µM, '-' = no inhibition, read-out: % Growth Inhibition
Procedure, shortened: as §1

SK-OV-3 = experiment: NCI-60 single-dose screen; type: cell-based; conditions: Homo sapiens, single dose 10 µM, '-' = no inhibition, read-out: % Growth Inhibition
Procedure, shortened: as §1

MDA-MB-435 = experiment: NCI-60 single-dose screen; type: cell-based; conditions: Homo sapiens, single dose 10 µM, '-' = no inhibition, read-out: % Growth Inhibition
Procedure, shortened: as §1

CAKI-1 = experiment: NCI-60 single-dose screen; type: cell-based; conditions: Homo sapiens, single dose 10 µM, '-' = no inhibition, read-out: % Growth Inhibition
Procedure, shortened: as §1

RPMI-8226 = experiment: NCI-60 single-dose screen; type: cell-based; conditions: Homo sapiens, single dose 10 µM, '-' = no inhibition, read-out: % Growth Inhibition
Procedure, shortened: as §1

SK-MEL-28 = experiment: NCI-60 single-dose screen; type: cell-based; conditions: Homo sapiens, single dose 10 µM, '-' = no inhibition, read-out: % Growth Inhibition
Procedure, shortened: as §1

UACC-62 = experiment: NCI-60 single-dose screen; type: cell-based; conditions: Homo sapiens, single dose 10 µM, '-' = no inhibition, read-out: % Growth Inhibition
Procedure, shortened: as §1

HL-60(TB) = experiment: NCI-60 single-dose screen; type: cell-based; conditions: Homo sapiens, single dose 10 µM, '-' = no inhibition, read-out: % Growth Inhibition
SF-295 = experiment: NCI-60 single-dose screen; type: cell-based; conditions: Homo sapiens, single dose 10 µM, '-' = no inhibition, read-out: % Growth Inhibition
Procedure, shortened: as §1

NCI-H460 = experiment: NCI-60 single-dose screen; type: cell-based; conditions: Homo sapiens, single dose 10 µM, '-' = no inhibition, read-out: % Growth Inhibition
Procedure, shortened: as §1

MALME-3M = experiment: NCI-60 single-dose screen; type: cell-based; conditions: Homo sapiens, single dose 10 µM, '-' = no inhibition, read-out: % Growth Inhibition
Procedure, shortened: as §1

HT29 = experiment: NCI-60 single-dose screen; type: cell-based; conditions: Homo sapiens, HT-29, single dose 10 µM, '-' = no inhibition, read-out: % Growth Inhibition
Procedure, shortened: as §1

A498 = experiment: NCI-60 single-dose screen; type: cell-based; conditions: Homo sapiens, single dose 10 µM, '-' = no inhibition, read-out: % Growth Inhibition
Procedure, shortened: as §1

NCI-H522 = experiment: NCI-60 single-dose screen; type: cell-based; conditions: Homo sapiens, single dose 10 µM, '-' = no inhibition, read-out: % Growth Inhibition
Procedure, shortened: as §1

NCI-H322M = experiment: NCI-60 single-dose screen; type: cell-based; conditions: Homo sapiens, single dose 10 µM, '-' = no inhibition, read-out: % Growth Inhibition
Procedure, shortened: as §1

HCT-15 = experiment: NCI-60 single-dose screen; type: cell-based; conditions: Homo sapiens, single dose 10 µM, '-' = no inhibition, read-out: % Growth Inhibition
Procedure, shortened: as §1

OVCAR-3 = experiment: NCI-60 single-dose screen; type: cell-based; conditions: Homo sapiens, single dose 10 µM, '-' = no inhibition, read-out: % Growth Inhibition
Procedure, shortened: as §1

SN12C = experiment: NCI-60 single-dose screen; type: cell-based; conditions: Homo sapiens, single dose 10 µM, '-' = no inhibition, read-out: % Growth Inhibition
Procedure, shortened: as §1

KM12 = experiment: NCI-60 single-dose screen; type: cell-based; conditions: Homo sapiens, single dose 10 µM, '-' = no inhibition, read-out: % Growth Inhibition
Procedure, shortened: as §1

MDA-MB231/ATCC = experiment: NCI-60 single-dose screen; type: cell-based; conditions: Homo sapiens, MDA-MB-231, single dose 10 µM, '-' = no inhibition, read-out: % Growth Inhibition
Procedure, shortened: as §1

NCI/ADR-RES = experiment: NCI-60 single-dose screen; type: cell-based; conditions: Homo sapiens, single dose 10 µM, '-' = no inhibition, read-out: % Growth Inhibition
Procedure, shortened: as §1

SF-268 = experiment: NCI-60 single-dose screen; type: cell-based; conditions: Homo sapiens, single dose 10 µM, '-' = no inhibition, read-out: % Growth Inhibition
Procedure, shortened: as §1

SW-620 = experiment: NCI-60 single-dose screen; type: cell-based; conditions: Homo sapiens, single dose 10 µM, '-' = no inhibition, read-out: % Growth Inhibition
Procedure, shortened: as §1

SF-539 = experiment: NCI-60 single-dose screen; type: cell-based; conditions: Homo sapiens, single dose 10 µM, '-' = no inhibition, read-out: % Growth Inhibition
Procedure, shortened: as §1

SNB-19 = experiment: NCI-60 single-dose screen; type: cell-based; conditions: Homo sapiens, single dose 10 µM, '-' = no inhibition, read-out: % Growth Inhibition
Procedure, shortened: as §1

LOX IMVI = experiment: NCI-60 single-dose screen; type: cell-based; conditions: Homo sapiens, single dose 10 µM, '-' = no inhibition, read-out: % Growth Inhibition
Procedure, shortened: as §1

SR = experiment: NCI-60 single-dose screen; type: cell-based; conditions: Homo sapiens, single dose 10 µM, '-' = no inhibition, read-out: % Growth Inhibition
Procedure, shortened: as §1

SNB-75 = experiment: NCI-60 single-dose screen; type: cell-based; conditions: Homo sapiens, single dose 10 µM, '-' = no inhibition, read-out: % Growth Inhibition
Procedure, shortened: as §1

DU-145 = experiment: NCI-60 single-dose screen; type: cell-based; conditions: Homo sapiens, single dose 10 µM, '-' = no inhibition, read-out: % Growth Inhibition
Procedure, shortened: as §1

RXF 393 = experiment: NCI-60 single-dose screen; type: cell-based; conditions: Homo sapiens, single dose 10 µM, '-' = no inhibition, read-out: % Growth Inhibition
Procedure, shortened: as §1

CCRF-CEM = experiment: NCI-60 single-dose screen; type: cell-based; conditions: Homo sapiens, single dose 10 µM, '-' = no inhibition, read-out: % Growth Inhibition
Procedure, shortened: as §1

With CCCSc1nc(-c2ccc(Cl)cc2)cc(-c2ccc(OC)c(OC)c2)n1 [Compound 25, 4-(4-Chlorophenyl)-6-(3,4-dimethoxyphenyl)-2-(propylthio)pyrimidine] the inhibition at 10 µM (UACC-257) was 24.8%, the inhibition at 10 µM (NCI-H23) was 2.74% and the inhibition at 10 µM (MCF7) was 17.5%. For the same compound, the inhibition at 10 µM (M14) was < 0%, the inhibition at 10 µM (ACHN 1) was 7.82% and the inhibition at 10 µM (UO-31) was 8.18%. It also gave an inhibition at 10 µM (MOLT-4) of 19.1%, an inhibition at 10 µM (SK-MEL-2) of 14.9% and an inhibition at 10 µM (PC-3) of 6.31%. For the same compound, the inhibition at 10 µM (OVCAR-8) was 6.34%, the inhibition at 10 µM (K-562) was 27.1% and the inhibition at 10 µM (BT-549) was < 0%. The inhibition at 10 µM (MDA-MB-468) was < 0%, the inhibition at 10 µM (TK-10) was 11.6% and the inhibition at 10 µM (IGROV1) was < 0%. The inhibition at 10 µM (EKVX) was 5.09%, the inhibition at 10 µM (HCC-2998) was 4.26% and the inhibition at 10 µM (SK-OV-3) was 2.94%. The inhibition at 10 µM (MDA-MB-435) was 0.34%, the inhibition at 10 µM (CAKI-1) was 13.5% and the inhibition at 10 µM (RPMI-8226) was 10.8%. It also gave an inhibition at 10 µM (SK-MEL-28) of 17.4%, an inhibition at 10 µM (UACC-62) of 3.23% and an inhibition at 10 µM (HL-60(TB)) of 15.5%. For the same compound, the inhibition at 10 µM (SF-295) was 5.66%, the inhibition at 10 µM (NCI-H460) was < 0% and the inhibition at 10 µM (MALME-3M) was 7.34%. The inhibition at 10 µM (HT29) was 14.7%, the inhibition at 10 µM (A498) was < 0% and the inhibition at 10 µM (NCI-H522) was 8%. For the same compound, the inhibition at 10 µM (NCI-H322M) was 4.54%, the inhibition at 10 µM (HCT-15) was 20.9% and the inhibition at 10 µM (OVCAR-3) was < 0%. The inhibition at 10 µM (SN12C) was < 0%, the inhibition at 10 µM (KM12) was 25.5% and the inhibition at 10 µM (MDA-MB231/ATCC) was 16.2%. It also gave an inhibition at 10 µM (NCI/ADR-RES) of 11.2%, an inhibition at 10 µM (SF-268) of 6.85% and an inhibition at 10 µM (SW-620) of 3.63%. For the same compound, the inhibition at 10 µM (SF-539) was 1.28%, the inhibition at 10 µM (SNB-19) was < 0% and the inhibition at 10 µM (LOX IMVI) was 1.51%. The inhibition at 10 µM (SR) was 24.9%, the inhibition at 10 µM (SNB-75) was 2.64% and the inhibition at 10 µM (DU-145) was 17.6%. The inhibition at 10 µM (RXF 393) was 8.5%, the inhibition at 10 µM (CCRF-CEM) was 11.2% and the melting point was 217 to 219 °C.
